# Data taken from patent publication US6667335B2, “Imidazole derivatives” (Hoffmann-La Roche Inc., priority 2001, dated 2003).
# Columns and labels:
# NMDA-receptor subtype 2B = biological target: T1, NMDA-receptor subtype 2B (Rattus norvegicus, UniProt P35439+Q00960); test: 3H-Ro 25-6981 binding (displacement) on rat brain membranes; conditions: displacement of 5 nM 3H-Ro 25-6981, rat whole brain membranes (minus cerebellum and medulla oblongata), 2 hours at 4° C.
# T1 construct: Membranes were prepared by homogenization of the whole brain minus cerebellum and medulla oblongata; from tissue; host or cells: rat whole brain minus cerebellum and medulla oblongata, membrane preparation
# T1 sequence (Q00960 27-1482, other chains not shown): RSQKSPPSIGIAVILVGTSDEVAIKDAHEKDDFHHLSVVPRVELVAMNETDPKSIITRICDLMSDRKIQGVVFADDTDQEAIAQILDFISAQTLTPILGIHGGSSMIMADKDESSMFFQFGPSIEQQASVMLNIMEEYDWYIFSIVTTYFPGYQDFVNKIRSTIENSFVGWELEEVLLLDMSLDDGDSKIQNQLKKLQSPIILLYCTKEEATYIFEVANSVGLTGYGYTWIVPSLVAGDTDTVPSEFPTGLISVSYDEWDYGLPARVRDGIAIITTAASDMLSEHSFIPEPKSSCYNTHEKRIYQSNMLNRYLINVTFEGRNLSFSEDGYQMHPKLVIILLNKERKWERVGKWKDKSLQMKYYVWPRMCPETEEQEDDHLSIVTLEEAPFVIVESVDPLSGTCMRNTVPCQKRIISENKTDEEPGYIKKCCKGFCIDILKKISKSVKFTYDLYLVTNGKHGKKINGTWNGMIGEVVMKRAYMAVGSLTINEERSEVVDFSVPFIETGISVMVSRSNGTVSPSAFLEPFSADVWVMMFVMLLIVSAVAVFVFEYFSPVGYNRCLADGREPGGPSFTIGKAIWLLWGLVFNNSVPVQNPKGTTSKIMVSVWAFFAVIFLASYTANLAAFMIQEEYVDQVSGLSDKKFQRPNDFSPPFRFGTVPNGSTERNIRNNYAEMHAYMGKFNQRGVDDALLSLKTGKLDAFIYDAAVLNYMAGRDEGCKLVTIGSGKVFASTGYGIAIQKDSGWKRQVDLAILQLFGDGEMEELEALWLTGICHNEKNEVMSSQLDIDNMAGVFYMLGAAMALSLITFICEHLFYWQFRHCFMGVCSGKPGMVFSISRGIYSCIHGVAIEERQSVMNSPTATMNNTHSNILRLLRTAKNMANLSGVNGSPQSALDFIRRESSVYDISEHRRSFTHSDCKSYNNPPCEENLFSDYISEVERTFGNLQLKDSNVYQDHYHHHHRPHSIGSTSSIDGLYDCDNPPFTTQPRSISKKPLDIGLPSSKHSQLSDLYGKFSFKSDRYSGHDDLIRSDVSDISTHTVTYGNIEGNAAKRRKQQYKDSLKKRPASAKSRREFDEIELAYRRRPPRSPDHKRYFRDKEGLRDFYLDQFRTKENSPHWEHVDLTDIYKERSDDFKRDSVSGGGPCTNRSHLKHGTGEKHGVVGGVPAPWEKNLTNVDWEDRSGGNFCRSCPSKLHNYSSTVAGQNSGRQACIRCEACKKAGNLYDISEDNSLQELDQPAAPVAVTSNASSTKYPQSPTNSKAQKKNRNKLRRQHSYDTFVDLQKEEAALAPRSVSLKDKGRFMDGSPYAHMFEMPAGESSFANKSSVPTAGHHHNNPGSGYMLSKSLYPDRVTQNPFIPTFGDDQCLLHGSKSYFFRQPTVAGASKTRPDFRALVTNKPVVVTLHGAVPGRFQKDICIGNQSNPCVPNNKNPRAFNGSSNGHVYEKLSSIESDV
SMILES,IC50 (NMDA-receptor subtype 2B) [nM],melting point
"CCc1nccn1Cc1cn(-c2cc(F)cc(Br)c2)cn1.Cl.Cl [Example 199, 1H-Imidazole, 1-[[1-(3-Bromo-5-fluorophenyl)-1H-imidazol-4-yl]methyl]-2-ethyl-, Hydrochloride (1:2)]",98,> 200 °C (dec.)
"Cl.Cl.Nc1nccn1Cc1cn(-c2ccc3c(c2)OCO3)cn1 [Example 224, 1-(1-Benzo[1,3]dioxol-5-yl-1H-imidazol-4-ylmethyl)-1H-imidazol-2-ylamine Hydrochloride (1:2)]",10,> 245 °C (dec.)
